What was measured:
Assay type in all cases: cell-based
TREM2 = molecular target: T1, TREM2 (Homo sapiens, UniProt Q9NZC2); test: Liposome stimulation pSyk AlphaLISA, HEK293 overexpressing TREM2 and DAP12; details: liposomes 30% lipid/70% PC (KLA 10%/90%), fold change over HBSS
T1 construct: expressed in transfected cells
Method: (§1) Lipids were purchased from Avanti Polar Lipids (Alabaster, Ala.) or Echelon Biosciences (Salt Lake City, Utah). Each screened lipid was resuspended in chloroform and added at 30 mole percent composition to 70 mole percent phosphatidylcholine (PC; 1,2-dioleoyl-sn-glycero-3-phosphocholine, Avanti Polar Lipids). Kdo2-Lipid A was added at a 10 mole percent composition with 90 mole percent PC. Lipid mixes were dried under nitrogen gas and resuspended in HBSS at a concentration of 4 mg/mL. Mixes were vortexed or briefly sonicated until resuspended, then bath sonicated for 1-5 minutes. Liposomes were used for 1-2 weeks. 3 independent batches of liposomes were used in experiments.
(§2) HEK293 cell lines overexpressing TREM2 and DAP12, mutant TREM2-R47H and DAP12, or DAP12 alone were plated in 96-well PDL-coated plates at a density of 40,000 cells per well and cultured for 36-48 hours until 90-100% confluent.
(§3) Cell culture medium was removed and cells were washed once with 200ul HBSS. Liposomes were diluted in HBSS in concentrations ranging from 0.03125 mg/mL to 2 mg/mL, then 50 μl was added to wells in 2-3 technical replicates per plate. Each plate contained HBSS negative control wells, 100% PC liposome control, 5 μg/mL agonist anti-TREM2 positive control (Abnova; Taiwan; # MAB2056), and 5 μg/mL mouse IgG3 isotype control (R&D Systems; Minneapolis, Minn.; # MAB007). Stimuli were incubated with cells for 5 minutes at 37° C., 5% CO2, liposomes were removed, and plates were frozen at −80° C.
(§4) Cells were lysed for 30 minutes to 1 hour on ice in 50 ul/well Cell Lysis Buffer (Cell Signaling Technology; Danvers, Mass.; #9803) with 1 mM PMSF. AlphaLISA SureFire Ultra p-Syk Tyr525/526 assay kit (PerkinElmer, ALSU-PSYK-A10OK) was used to measure pSyk levels in lysate as per manufacturer protocol. 10 μl lysate was added to 384-well OptiPlates (PerkinElmer; #6007290) and an EnVision Multilabel Plate Reader (PerkinElmer) was used to measure AlphaLISA fluorescence.
(§5) PSyk AlphaLISA fluorescence was converted to a log 2 scale. Fluorescence values from liposomes and controls were each subtracted from average fluorescence values from HBSS stimulated wells on the same plate (log 2(liposome)−log 2(HBSSave)=log 2(signal)). The result was converted back to a standard scale to measure fold change (2^log 2(signal)=fold change). Technical replicate fold changes values were averaged to obtain the fold change over background listed (pSyk FOB). Graphs represent values from independent experiments or individual human donors. Results from the screen on the HEK293 overexpressing cell lines are shown in Table 9 below and in FIG. 8A-8B. HEK293 results showing specificity for TREM2 over DAP12 expressed alone can be used to extrapolate which lipid species are likely acting as TREM2 ligands on human macrophages.

R47H TREM2 mutant = molecular target: T2, R47H TREM2 mutant (Homo sapiens, UniProt Q9NZC2, R47H); test: Liposome stimulation pSyk AlphaLISA, HEK293 overexpressing TREM2-R47H and DAP12; details: liposomes 30% lipid/70% PC (KLA 10%/90%), fold change over HBSS
T2 construct: expressed in transfected cells
T2 sequence (Q9NZC2 19-230 R47H): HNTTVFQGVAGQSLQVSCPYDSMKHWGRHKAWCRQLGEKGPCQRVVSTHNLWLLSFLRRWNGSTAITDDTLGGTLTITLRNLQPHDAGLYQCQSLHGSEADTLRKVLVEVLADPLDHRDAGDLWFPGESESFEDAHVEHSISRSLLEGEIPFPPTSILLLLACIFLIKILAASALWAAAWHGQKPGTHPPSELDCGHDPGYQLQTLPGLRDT
T2 sequence (O43914 22-113 partner): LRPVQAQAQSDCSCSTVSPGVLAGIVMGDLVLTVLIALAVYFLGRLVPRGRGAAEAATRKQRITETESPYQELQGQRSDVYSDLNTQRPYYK
Method: as §1, §2, §3, §4, §5

DAP12 alone = molecular target: T3, DAP12 alone (Homo sapiens, UniProt O43914); test: Liposome stimulation pSyk AlphaLISA, HEK293 expressing DAP12 alone; details: liposomes 30% lipid/70% PC (KLA 10%/90%), fold change over HBSS
T3 construct: expressed in transfected cells
T3 sequence (O43914 22-113): as the sequence (O43914 22-113 partner) above
Method: as §1, §2, §3, §4, §5

[1] = test system: primary human macrophages; test: Liposome stimulation pSyk AlphaLISA, primary human macrophages; details: liposomes 30% lipid/70% PC (KLA 10%/90%)
Method: as §1
10 mL human blood was obtained from Blood Centers of the Pacific. Monocytes were extracted using RosetteSep Human Monocyte Enrichment Cocktail ([…] Technologies Inc.; Vancouver, BC; #15068) as per manufacturer protocols. Density gradient was performed with Ficoll-Paque Premium (GE Healthcare Life Sciences; Pittsburgh, Pa.; #17-5442-02). Isolated monocytes were resuspended at ˜1-1.3 million cells/mL and cultured for 5-6 days in RPMI, 10% Hyclone Fetal Bovine Serum, and penicillin/streptomycin supplemented with 50 ng/mL human M-CSF (Gibco, # PHC9501) in T175 tissue culture treated flasks. M-CSF was replenished every 2-3 days. Cells were washed once with PBS, 15 mL fresh medium was added, and cells were harvested by scraping. Cells were cultured overnight at a density of 100,000 cells per well on tissue culture treated 96-well plates supplemented with 10-25 ng/mL M-CSF.
as §3, §4, §5

T1 sequence (Q9NZC2 19-230): as the sequence (Q9NZC2 19-230 R47H) above, with H29R counted along it
T1 sequence (O43914 22-113 partner): as the sequence (O43914 22-113 partner) above

Human TREM2 (pSyk FOB) (TREM2) [FOB] | R47H TREM2 mutant (pSyk FOB) (R47H TREM2 mutant) [FOB] | DAP12 alone (pSyk FOB) (DAP12 alone) [FOB] | Compound | pSyk FOB [1] [FOB]
2.61 | 6.27 | 1.20 | C[C@H](CCCC(C)(C)O)[C@H]1CC[C@H]2[C@@H]3CC=C4C[C@@H](O)CC[C@]4(C)[C@H]3CC[C@]12C [25(S)hydroxycholesterol (25OHC), 25(S)hydroxycholesterol] | 1.14
2.01 | 2.27 | 0.86 | CCCCCCCC/C=C\CCCCCCCC(=O)OC[C@H](COP(=O)([O-])OCC[N+](C)(C)C)OC(=O)CCCCCCC/C=C\CCCCCCCC [100% Phosphatidylcholine (PC), 1,2-dioleoyl-sn-glycero-3-phosphocholine, reference compound] | 1.18
3.42 | 3.70 | 1.16 | CCCCCCCC(=O)OC[C@H](COP(=O)(O)OP(=O)(O)O)OC(=O)CCCCCCC [Diacylglycerol pyrophosphate (DGPP), Diacylglycerol pyrophosphate] | 1.61
1.04 | 2.24 | 1.14 | CC(C)CCC[C@@H](C)[C@H]1CC[C@H]2[C@@H]3CC=C4C[C@@H](O)CC[C@]4(C)[C@H]3CC[C@]12C [Free cholesterol (FC), Free cholesterol] | 1.44
1.09 | 1.07 | 0.71 | CCCCCCCCCCCCC/C=C/[C@@H](O)[C@@H](N)CO[C@@H]1O[C@H](CO)[C@H](O)[C@H](O)[C@H]1O [Galactosylsphingosine (GalSo), Galactosylsphingosine] | 
1.34 | 1.27 | 1.31 | CCCCCCCCCCCCC/C=C/[C@@H](O)[C@@H](N)CO[C@@H]1O[C@H](CO)[C@@H](O)[C@H](O)[C@H]1O [Glucosyl sphingosine (GlcSo), Glucosyl sphingosine] | 2.05
0.76 | 1.39 | 1.26 | CCCCCCCCCCCCCCC[C@@H](O)[C@@H](N)CO [Sphinganine] | 
0.79 | 0.97 | 0.85 | CCCCCCCCCCCCCCCCCCCCCCCCCC(=O)N[C@@H](CO[C@H]1O[C@H](CO)[C@H](O)[C@H](O)[C@H]1O)[C@H](O)[C@H](O)CCCCCCCCCCCCCC [α-galactosylceramide (KRN7000), α-galactosylceramide] | 
1.17 | 1.83 | 1.55 | Acyl Carnitine [Acyl Carnitine (AC)] | 
1.20 | 0.68 | 0.68 | Diacylglycerol 34:1 [Diacylglycerol 34:1 (DG34:1)] | 
1.05 | 0.73 | 0.64 | Diacylglycerol 38:4 [Diacylglycerol 38:4 (DG 38:4)] | 
1.22 | 1.47 | 0.84 | Dihyrdoceramide [Dihyrdoceramide (DhCer)] | 
 |  |  | Glucosylceramide [Glucosylceramide (GlcCer)] | 1.58
1.26 | 1.47 | 1.14 | Lysophosphatidylcholine [Lysophosphatidylcholine (LPC)] | 
0.67 | 0.94 | 0.78 | N-Acyl-phosphatidylethanolamine [N-Acyl-phosphatidylethanolamine (NAPE)] | 
1.58 | 1.41 | 0.69 | alkylacylglycerophosphocholine [alkylacylglycerophosphocholine (PAF)] | 
1.81 | 1.46 | 0.67 | lysoalkylacylglycerophosphocholine | 

Compound | Human TREM2 (pSyk FOB) (TREM2) [FOB] | R47H TREM2 mutant (pSyk FOB) (R47H TREM2 mutant) [FOB] | DAP12 alone (pSyk FOB) (DAP12 alone) [FOB] | pSyk FOB [1] [FOB]
CCCCCCCCCCCCCCCC(=O)OC[C@H](COP(=O)([O-])OCC[N+](C)(C)C)OC(=O)CCCC=O [1-palmitoyl-2-(5′-oxo-valeroyl)-sn-glycero-3-phosphocholine] | 0.86 | 1.57 | 1.34 | 
CCCCC/C=C\C/C=C\C/C=C\C/C=C\CCCC(=O)OC(CO)CO [2-Arachidonoylglycerol (2-AG), 2-Arachidonoylglycerol] | 0.68 | 0.84 | 1.11 | 1.23
CC(C)CCC[C@@H](C)[C@H]1CC[C@H]2[C@@H]3C(=O)C=C4C[C@@H](O)CC[C@]4(C)[C@H]3CC[C@]12C [7-ketocholesterol (7-KC), 7-ketocholesterol] | 1.10 | 3.42 | 1.36 | 1.18
CC(C)[C@@H](O)CC[C@@H](C)[C@H]1CC[C@H]2[C@@H]3CC=C4C[C@@H](O)CC[C@]4(C)[C@H]3CC[C@]12C [24(S)hydroxycholesterol (24OHC), 24(S)hydroxycholesterol] | 4.50 | 8.44 | 1.57 | 1.56
C[C@@H](CO)CCC[C@@H](C)[C@H]1CC[C@H]2[C@@H]3CC=C4C[C@@H](O)CC[C@]4(C)[C@H]3CC[C@]12C [27-hydroxycholesterol (27OHC), 27-hydroxycholesterol] | 5.26 | 9.25 | 1.36 | 1.72
CC(C)CCC[C@@H](C)[C@H]1CC[C@H]2[C@@H]3CC=C4C[C@@H](OP(=O)(O)O)CC[C@]4(C)[C@H]3CC[C@]12C [Cholesterol phosphate (CP), Cholesterol phosphate] | 2.43 | 3.09 | 1.27 | 1.18
CCCCCCCCCCCCCC(=O)O[C@H](CCCCCCCCCCC)CC(=O)O[C@@H]1[C@@H](NC(=O)C[C@@H](CCCCCCCCCCC)OC(=O)CCCCCCCCCCC)[C@H](OC[C@H]2O[C@H](OP(=O)(O)O)[C@H](NC(=O)C[C@H](O)CCCCCCCCCCC)[C@@H](OC(=O)C[C@H](O)CCCCCCCCCCC)[C@@H]2O)O[C@H](CO[C@]2(C(=O)O)C[C@@H](O[C@]3(C(=O)O)C[C@@H](O)[C@@H](O)[C@@H]([C@H](O)CO)O3)[C@@H](O)[C@@H]([C@H](O)CO)O2)[C@H]1OP(=O)(O)O [Kdo2-Lipid A (KLA), Kdo2-Lipid A] | 5.15 | 6.65 | 1.25 | 2.73
CCCCCCCCCCCCC/C=C/[C@@H](O)[C@@H](N)COP(=O)([O-])OCC[N+](C)(C)C [Lysosphingomyelin (LSM), Lysosphingomyelin] | 0.67 | 0.85 | 1.03 | 1.26
